Data set [1] can be described thus: Hydrodynamic size by DLS (Malvern zetasizer) in water. The data set is classed as physicochemical. To be noted: in H2O, OVA8 or CpG 5 µM, mean ± SD, n = 3. The procedure: The size and the dispersity of each of the three nanoconstructs in water were determined by Malvern zetasizer. […] (195.1 nm ± 61.1). […] To better understand how PVN nanoparticles are formed, we used LP11[OVA8/CpG/LLP2A] as an example and analyzed the hydrodynamic size, morphology, and spatial distribution of its components in various LP11‐based incomplete PVNs. It is well‐known that Class A CpG ODNs can self‐assemble into nanosized multimers because of their palindromic and poly‐guanine (G) tails.^[ [19], [21], [22] ^] […] To determine whether G‐quadruplex structures formed in the CpG ODN nanoclusters, we used nuclear magnetic resonance (NMR) to detect the CpG structure. […] Furthermore, hybridization with CpG, P3‐OVA8, and LLP2A‐P4 payloads increased the size of the final nanoparticle to 132.6 ± 71.7 nm.
(§1) The size and zeta potential of LPn[OVA8/CpG/LLP2A] in H2O were detected by Malvern DLS zetasizer with the equivalent concentration of OVA8 or CpG at 5 µΜ. The morphology of LPn[OVA8/CpG/LLP2A] was visualized by transmission electron microscope (TEM, 80 kV FEI Talos 120C).

Data set [2] is described as follows: Zeta potential in H2O (Malvern DLS zetasizer). In kind it is physicochemical. To be noted: OVA8 or CpG 5 µM, mean ± SD, n = 3.
From the text: as §1

Data set [3] relates to co‐culture of RF33.70 cells and the activated BMDCs. Put plainly: IL-2 secretion from co-culture of pretreated BMDCs and RF33.70 cells (ELISA). The data set is classed as cell-based, mouse. To be noted: BMDCs pretreated 16 h at 1 µM, co-culture with RF33.70 16 h, n = 3. How it is done:
The differentiation of BMDC from bone marrow cells was performed as previously described.^[ [48] ^] 2 × 10^4 cells/well BMDCs were suspended in 200 µL medium without adding IL‐2 and IL‐4. BMDCs were treated with LPn[OVA8/CpG/LLP2A] containing 1 or 2 µM of OVA8 for 16 h. Each group contains approximately equivalent concentrations of CpG and OVA8 based on the data in Table S1 (Supporting Information). After that, the cells were centrifuged at 320 g for 5 min to remove the uninternalized drugs. Then the BMDC cells were resuspended in RPMI medium and were co‐incubated with 10 × 10^4 cells/well of RF33.70 cells for another 16 h. After that, the medium supernatant was collected. The IL‐2 concentration was measured by IL‐2 Mouse ELISA Kit (Thermo Fisher).
For the blocking experiment, BMDC cells were pre‐incubated with an excess of LLP2A‐P4 (100 µM) for 1 h. Then the cells were washed three times with PBS, before the treatment of 1 µM LP11[OVA8/CpG/LLP2A] for 16 h. After that, the cells were washed three times with PBS to get rid of the uninternalized drugs, followed by co‐culturing with RF33.70 cells. The IL‐2 level was quantified by ELISA as mentioned above.
For orientation: An ELISA detects its analyte on a solid surface through an enzyme-linked reagent.

Regarding “CpG: Class A CpG oligonucleotide, toll‐like receptor 9 agonist; 5′ ggGGTCAACGTTGAgggggg 3′, lowercase phosphorothioate (DNA GGGGTCAACGTTGAGGGGGG; DNA, linkages s2 o12 s5 (s phosphorothioate, o phosphodiester), methylation of C not given here; further chemistry not fully specified)”, the average hydrodynamic size in data set [1] is recorded as 62.3 ± 14.2 nm. This substance also displayed a zeta potential in data set [2] of −24.3 ± 13.3 mV. Besides, in data set [3], the “IL‐2 production” value is reported as “barely induced”.

Take TAC‐K‐SIINFEKL [P3‐OVA8]: in data set [2], the zeta potential was about 0 mV.

With CCCCGTATGCA [LP11], in data set [2], the zeta potential is about 0 mV. Also, in data set [3], the “IL‐2 production” value is reported as “barely induced”.

The values are drawn from article PMC12723328, “Designing Programmable Peptide Nucleic Acid‐based Nanovaccines for Anticancer Immune Activation” (Small (Weinheim an Der Bergstrasse, Germany), 2025).
